{
  "source": "patent US20210252015A1",
  "about": "“CERTAIN (2S)-N-[(1S)-1-CYANO-2-PHENYLETHYL]-1,4-OXAZEPANE-2-CARBOXAMIDES FOR TREATING INFLAMMATORY BOWEL DISEASE” (Insmed Incorporated, priority 2018, published 2021)",
  "format_in_all_cases": "in vivo",
  "key": {"[1]": {"tested_on": "DSS-induced colitis in C57BL/6 mice", "assay": "DSS-induced colitis murine study, Example 1A (endoscopy, stool consistency, body weight)", "settings": "for mean endoscopy score: INS1007 1 mg/kg PO BID Day -7 to 20, scale 0-4", "description": "Mice: Seventy-nine (79) male C57BL/6 mice with an average starting body weight (SEM) of 23.32 g (+1.53 g) were obtained from Charles River Laboratories (Wilmington, Mass.). Animals were acclimatized prior to the study. During this period, the animals were observed daily in order to reject any that presented in poor condition. Animals were fed with 5053 sterile rodent diet and water was provided ad libitum.\nINS1007 Solutions: INS1007 was diluted with 0.5% hydroxypropylmethylcellulose in citrate buffer w/0.1% Tween 80 (pH 3.0). Solutions were stored at 4° C. INS1007 solutions were discarded after 3 days and fresh solutions were prepared.\nAnti-p40 mAb solution: Anti-mouse IL-12 p40 (Clone: C17.8) obtained from BioXCell (Cat #: BE0051) was diluted with phosphate buffered saline. Solutions were stored at 4° C. Anti-mouse IL-12 p40 solutions were discarded after 7 days and fresh solutions were prepared.\nDSS Induction Solution: Dextran sulfate sodium salt obtained from MP Biomedical (Cat #02160110) was diluted with water. DSS solutions were stored at room temperature.\nGroups 1-4 were negative controls; groups 5-7 were treated with INS 1007 and Group 8 was treated with Anti-p40 mAb. ^i The dosing protocol for the Anti-p40 antibody is not shown in FIG. 1.\nThe study included three phases: a pre-treatment period (Veh/1007 Pretx in FIG. 1); DSS-induction period (DSS in FIG. 1) and a treatment period (Veh/1007 in FIG. 1). Colitis was induced in Groups 3-8 by exposure to 3% DSS Induction Solution from Day 0 to Day 5. Animals in Groups 2 and 4-7 were dosed via oral gavage (PO) twice daily (BID) from Days −7 to 20 with INS1007 Solution or vehicle, as indicated in Table 1. Animals in Group 8 were dosed via intraperitoneal (IP) injection once every third day (Q3D) from Day 0 to 18 with Anti-p40 mAb solution.\nAll animals were weighed daily and assessed visually for the presence of diarrhea and/or bloody stool at the time of dosing. Each mouse, under isoflurane anesthesia, underwent video endoscopy on Days 10, 14, & 21 using a small animal endoscope (Karl Storz Endoskope, Germany), to assess colitis severity. Colitis severity was scored using a 0-4 scale (0=normal; 1=loss of vascularity; 2=loss of vascularity and friability; 3=friability and erosions; 4=ulcerations and bleeding). Stool consistency was scored during endoscopy using the parameters defined in Table 2. Following endoscopy on day 21, all animals from each treatment group were sacrificed."}, "[2]": {"tested_on": "DSS-induced colitis in C57BL/6 mice", "assay": "DSS-induced colitis model, mean over animals of Examples 1A and 1B", "settings": "vs vehicle control", "description": "Mean Endoscopy/Stool Consistency Scores and Mean Weight Change: The mean of the endoscopy and stool consistency scores from Days 10 and 14 observed from Examples 1A and 1B was determined to provide a mean endoscopy score and mean stool consistency score for Days 10 and 14 in the DSS-induced colitis model (i.e., mean that includes the animals from Examples 1A and 1B). FIGS. 11A and 12A show the Mean Endoscopy score. FIGS. 11B and 12B show the Mean Stool Consistency score.\nThe percent change in body weight on Day 14 from Examples 1A and 1B were averaged to provide mean percent body weight change for Day 14 in the DSS-induced colitis model (i.e., mean that includes the animals from Examples 1A and 1B)."}, "[3]": {"tested_on": "DSS-induced colitis in C57BL/6 mice", "assay": "DSS-induced colitis murine study, Example 1B (endoscopy, stool consistency, body weight)", "excerpt": "Mice: Ninety-five (95) male C57BL/6 mice with an average starting body weight (SEM) of 20.6 g (+0.16 g) were obtained from Charles River Laboratories (Wilmington, Mass.). Animals were acclimatized prior to the study. During this period, the animals were observed daily in order to reject any that presented in poor condition. Animals were fed with 5053 sterile rodent diet and water was provided ad libitum.\nSolutions: The INS1007 Solution, Anti-p40 mAb solution and DSS Induction Solution were prepared and stored as described in Example 1A. […]\nAll animals were weighed daily and assessed visually for the presence of diarrhea and/or bloody stool at the time of dosing. […] Colitis severity was scored using the scale described in Example 1A. Stool consistency was scored during endoscopy using the parameters defined in Table 2. […]\nAnimals underwent endoscopy on Days 10 and 14, in order to assess colonic inflammation. Colitis was scored visually on a five-point scale using the method described in Example 1A. Stool consistency was scored visually on a five-point scale using the method described in Example 1A. […]\nTo determine the statistical significance of overall differences in mean percent body weight change between groups, the area under the curve (AUC) was calculated using the trapezoidal rule transformation and is shown in the FIG. 9."}},
  "data": [
    {"smiles": "Cn1c(=O)oc2ccc(-c3ccc(C[C@@H](C#N)NC(=O)[C@@H]4CNCCCO4)cc3)cc21", "note": "[INS1007, (2S)—N-{(1S)-1-cyano-2-[4-(3-methyl-2-oxo-2,3-dihydro-1,3-benzoxazol-5-yl)phenyl]ethyl}-1,4-oxazepane-2-carboxamide]", "values": [
      {"measurement": "mean endoscopy score", "setting": "[1]; Day 10, DSS-Vehicle control 2.67", "result": 2.25},
      {"measurement": "mean endoscopy score", "setting": "[1]; Day 14, DSS-Vehicle control 2.79", "result": 1.92},
      {"measurement": "mean endoscopy score", "setting": "[1]; Day 21, DSS-Vehicle control 2.36", "result": 2.08},
      {"measurement": "weight loss (percentage of starting weight on Day 0)", "setting": "[1]; INS1007 PO BID, vs DSS-vehicle control (peak loss -18.46% Day 11)", "result": "modestly attenuated weight loss"},
      {"measurement": "stool consistency scores", "setting": "[1]; INS1007 at all three concentrations (0.1, 1, 10 mg/kg PO BID), Days 10, 14, 21, particularly Days 14 and 21", "result": "modest decreases in stool scores"},
      {"measurement": "mean endoscopy score (Examples 1A and 1B)", "setting": "[2]; Day 10, 0.3 mg/kg", "result": "significantly reduced"},
      {"measurement": "mean stool consistency score (Examples 1A and 1B)", "setting": "[2]; Day 10, 0.3 mg/kg", "result": "significantly reduced"},
      {"measurement": "mean endoscopy score (Examples 1A and 1B)", "setting": "[2]; Day 10, 3 mg/kg", "result": "significantly reduced"},
      {"measurement": "average mean endoscopy score (Examples 1A and 1B)", "setting": "[2]; Day 14, 0.3 mg/kg", "result": "significantly reduced"},
      {"measurement": "average mean weight change (percent body weight change, Examples 1A and 1B)", "setting": "[2]; Day 14, 0.3 mg/kg, lost less weight", "result": "significantly reduced"},
      {"measurement": "stool consistency score (Examples 1A and 1B)", "setting": "[2]; Day 14, 3 mg/kg", "result": "significantly reduced"},
      {"measurement": "mean endoscopy score", "setting": "[3]; Day 14, INS1007 0.3 mg/kg PO BID (Group 3), vs vehicle control (Group 2)", "result": "reduced"},
      {"measurement": "body weight loss (AUC, calculated based on Day -7)", "setting": "[3]; INS1007 1 mg/kg PO BID (Group 4), vs Group 2 (3% DSS+vehicle)", "result": "significantly decreased"}
    ]}
  ]
}
